Experimental data as given in patent US12343416B2, “Skin engaging member for razor cartridge comprising skin active ingredient” (BIC-VIOLEX S.A., priority 2019, dated 2025).

How the values were obtained:
[1] = assay type: physicochemical
Text: Again, without being bound to theory, one could explain this thermostability by the low volatility related with high molecular weight. Indeed, Glycyrrhizic acid and its salts are widely used in food applications that are intended to be baked and keeping the sweetness.

[2] = Retention of skin active ingredient after extrusion of the skin engaging member (process tolerance / thermal stability); assay type: physicochemical; settings: initial concentration 1% in HIPS/PEG/BHT blend; heated to melt and extruded via rotating screw; 150° C. to 300° C., 250-2000 bar
Protocol: Therefore and more particularly, throughout the present description and claims, the expression “thermally tolerant” or “thermally stable” or “process tolerant” should thus be understood that the skin engaging member retains the contained skin active ingredient, after a thermal treatment/processing at about 150 to 300° C., from 2 to 15 minutes and pressure conditions between 250-2000 bar, in processes such as extrusion or injection or injection-molding, in concentration that is detected quantitatively at the end product/article, by applying analytical chemistry methods, such as liquid chromatography. In embodiments that the skin engaging member comprises skin active ingredient capable of treating and/or preventing skin redness or skin irritation and being selected from the group consisting of a) at least one terpenic acid derivative, b) strombine or salt of strombine, combined with a clay, and c) mixtures thereof, the concentration of the skin active ingredient retained after the thermal treatment/processing is about 0.001-100%, particularly 20-80%, more particularly 20-70%, of the initial quantity of skin active ingredient added. […]
The quantity of the skin active ingredient in the skin engaging member can be measured/evaluated by (chromatographic) methods known to the skilled person depending on the nature of the active ingredient. […]

Molecule | heat stability/tolerance [1] | reduction of the amount of skin active ingredient compared to the initial concentration, measured in the final skin engaging member [2]
Dipotassium Glycyrrhizinate/Glycyrrhizate | heat stable/tolerant | 30%
C[C@H]1[C@H](C)CC[C@]2(C)CC[C@]3(C)C(=CC[C@@H]4[C@@]5(C)CC[C@@H](O)[C@](C)(C(=O)O)[C@@H]5CC[C@]43C)[C@H]12 [boswellic acid] |  | 52.2%
CC1(C)[C@@H](O[C@H]2O[C@H](C(=O)O)[C@@H](O)[C@H](O)[C@H]2O[C@@H]2O[C@H](C(=O)O)[C@@H](O)[C@H](O)[C@H]2O)CC[C@]2(C)[C@H]3C(=O)C=C4[C@@H]5C[C@@](C)(C(=O)O)CC[C@]5(C)CC[C@@]4(C)[C@]3(C)CC[C@@H]12 [Glycyrrhizic acid, (3-beta, 20-beta)-20-carboxy-11-oxo-30-norolean-12-en-β-yl 2-O-beta-D-glucopyranuronosyl-alpha-D-glucopyranosiduronic] | heat stable/tolerant | 
